Test results published in patent US20220095618A1, “HERBICIDAL COMPOSITIONS” (SYNGENTA CROP PROTECTION AG, priority 2019, published 2022).

Tests used:
Experiment in all cases: Post-emergence efficacy of compounds of Formula (I) (B1), glasshouse
Type in all cases: in vivo
[1] = test system: Setaria faberi (SETFA); settings: Application Rate 500 g/Ha, evaluated after 13 days; for pest or weed control at 500 g/ha: Setaria faberi, post-emergence, 312 h, read-out: Control of SETFA after post-emergence application (100=total damage to plant; 0=no damage to plant)
Experimental: (§1) Seeds of a variety of test species were sown in standard Iaom-based soil in pots:— Ipomoea hederacea (IPOHE), Euphorbia heterophylla (EPHHL), Chenopodium album (CHEAL), Amaranthus palmeri (AMAPA), Lolium perenne (LOLPE), Digitaria sanguinalis (DIGSA), Eleusine indica (ELEIN), Echinochloa crus-galli (ECHCG), Setaria faberi (SETFA). After cultivation for 14 days (post-emergence) under controlled conditions in a glasshouse (at 24/16° C., day/night; 14 hours light; 65% humidity), the plants were sprayed with an aqueous spray solution derived from the dissolution of the technical active ingredient Formula (I) in a small amount of acetone and a special solvent and emulsifier mixture referred to as IF50 (11.12% Emulsogen EL360 TM+44.44% N-methylpyrrolidone+44.44% Dowanol DPM glycol ether), to create a 50 g/I solution which was then diluted to required concentration using 0.25% or 1% Empicol ESC70 (Sodium lauryl ether sulphate)+1% ammonium sulphate as diluent. The delivery of the aqueous spray solution was via a laboratory track sprayer which delivered the aqueous spray composition at a rate of 200 litres per hectare, using a flat fan nozzle (Teejet 11002VS) and an application volume of 200 litre/ha (at 2 bar).
(§2) The test plants were then grown in a glasshouse under controlled conditions (at 24/16° C., day/night; 14 hours light; 65% humidity) and watered twice daily. After 13 days the test was evaluated (100=total damage to plant; 0=no damage to plant).

[2] = test system: Digitaria sanguinalis (DIGSA); settings: Application Rate 500 g/Ha, evaluated after 13 days; for pest or weed control at 500 g/ha: Digitaria sanguinalis, post-emergence, 312 h, read-out: Control of DIGSA after post-emergence application (100=total damage to plant; 0=no damage to plant)
Experimental: as §1, §2

[3] = test system: Amaranthus palmeri (AMAPA); settings: Application Rate 500 g/Ha, evaluated after 13 days; for pest or weed control at 500 g/ha: Amaranthus palmeri, post-emergence, 312 h, read-out: Control of AMAPA after post-emergence application (100=total damage to plant; 0=no damage to plant)
Experimental: as §1, §2

[4] = test system: Echinochloa crus-galli (ECHCG); settings: Application Rate 500 g/Ha, evaluated after 13 days; for pest or weed control at 500 g/ha: Echinochloa crus-galli, post-emergence, 312 h, read-out: Control of ECHCG after post-emergence application (100=total damage to plant; 0=no damage to plant)
Experimental: as §1, §2

[5] = test system: Lolium perenne (LOLPE); settings: Application Rate 500 g/Ha, evaluated after 13 days; for pest or weed control at 500 g/ha: Lolium perenne, post-emergence, 312 h, read-out: Control of LOLPE after post-emergence application (100=total damage to plant; 0=no damage to plant)
Experimental: as §1, §2

[6] = test system: Ipomoea hederacea (IPOHE); settings: Application Rate 500 g/Ha, evaluated after 13 days; for pest or weed control at 500 g/ha: Ipomoea hederacea, post-emergence, 312 h, read-out: Control of IPOHE after post-emergence application (100=total damage to plant; 0=no damage to plant)
Experimental: as §1, §2

[7] = test system: Euphorbia heterophylla (EPHHL); settings: Application Rate 500 g/Ha, evaluated after 13 days; for pest or weed control at 500 g/ha: Euphorbia heterophylla, post-emergence, 312 h, read-out: Control of EPHHL after post-emergence application (100=total damage to plant; 0=no damage to plant)
Experimental: as §1, §2

[8] = test system: Eleusine indica (ELEIN); settings: Eleusine indica, post-emergence, 312 h, Application Rate 500 g/Ha; evaluated after 13 days; read-out: Control of ELEIN after post-emergence application (100=total damage to plant; 0=no damage to plant)
Experimental: as §1, §2

[9] = test system: Chenopodium album (CHEAL); settings: Application Rate 500 g/Ha, evaluated after 13 days; for pest or weed control at 500 g/ha: Chenopodium album, post-emergence, 312 h, read-out: Control of CHEAL after post-emergence application (100=total damage to plant; 0=no damage to plant)
Experimental: as §1, §2

| SMILES | pest or weed control at 500 g/ha [1] | pest or weed control at 500 g/ha [2] | pest or weed control at 500 g/ha [3] | pest or weed control at 500 g/ha [4] | pest or weed control at 500 g/ha [5] | pest or weed control at 500 g/ha [6] | pest or weed control at 500 g/ha [7] | pest or weed control at 500 g/ha [8] | pest or weed control at 500 g/ha [9] | Control of SETFA after post-emergence application (100=total damage to plant; 0=no damage to plant) [1] | Control of LOLPE after post-emergence application (100=total damage to plant; 0=no damage to plant) [5] | Control of EPHHL after post-emergence application (100=total damage to plant; 0=no damage to plant) [7] | Control of DIGSA after post-emergence application (100=total damage to plant; 0=no damage to plant) [2] | Control of AMAPA after post-emergence application (100=total damage to plant; 0=no damage to plant) [3] | Control of ECHCG after post-emergence application (100=total damage to plant; 0=no damage to plant) [4] | Control of IPOHE after post-emergence application (100=total damage to plant; 0=no damage to plant) [6] | Control of CHEAL after post-emergence application (100=total damage to plant; 0=no damage to plant) [9] |
| --- | --- | --- | --- | --- | --- | --- | --- | --- | --- | --- | --- | --- | --- | --- | --- | --- | --- |
| O=C(CC[n+]1ccc(-c2ncccn2)cn1)Oc1ccccc1 [Compound 1.020] | 100% | 100% | 100% | 90% | 80% | 30% | 80% | 100% | 80% | – | – | – | – | – | – | – | – |
| O=C(O)CC[n+]1ccc(-c2cnccn2)cn1.O=C([O-])C(F)(F)F [Compound 1.005, 3-(4-pyrazin-2-ylpyridazin-1-ium-1-yl)propanoic acid 2,2,2-trifluoroacetate] | – | 100% | 100% | 100% | – | 30% | – | 100% | 100% | 60 | 80 | 70 | – | – | – | – | – |
| O=C(O)CC[n+]1ccc(-c2cccnn2)cn1.[Cl-] [Compound 1.027, 3-(4-pyridazin-3-ylpyridazin-1-ium-1-yl)propanoic acid chloride] | – | – | – | – | 100% | – | – | 80% | – | 100 | – | 100 | 100 | 100 | 100 | 30 | 100 |
| O=S(=O)([O-])CC[n+]1ccc(-c2ccnnc2)cn1 [Compound 1.006, 2-(4-pyridazin-4-ylpyridazin-1-ium-1-yl)ethanesulfonate] | 30% | 80% | 100% | 60% | 80% | 100% | 100% | 100% | 100% | – | – | – | – | – | – | – | – |
| O=S(=O)([O-])CCC[n+]1ccc(-c2ncccn2)cn1 [Compound 1.003, 3-(4-pyrimidin-2-ylpyridazin-1-ium-1-yl)propane-1-sulfonate] | 100% | 100% | 100% | 80% | 60% | 60% | 100% | 100% | 100% | – | – | – | – | – | – | – | – |
